Series [1] is described as follows: Example 1: safety evaluation (clinical parameters, adverse events graded by VCOG-CTCAE). It counts as in vivo, Canis lupus familiaris (dog). The method, then:
Clinical parameters such as bodyweight (kg), rectal temperature (° C.), heart rate (HR) per minute, respiratory rate (RR) per minute, general demeanor and body function (e.g. eating, drinking, urine and stools), were collected on each enrolled dog at screening, immediately pre-treatment, at approximately 2-4 and 24 hours post-treatment, and at 7(±2), 14(±2) and 28(±2) days post treatment. An adverse event (AE) was defined as any unfavorable and unintended sign, symptom, or disease temporally associated with the use of the drug, whether or not related to the product (VCOG-CTCAE, 2011). AE were graded according to the VCOG-CTCAE classification which is a descriptive severity scale (grade system) used for AE reporting in dogs treated with antineoplastic therapy.
With the exception of swelling and pain, local tissue pathology as a result of treatment (i.e. tumor necrosis) was not considered an adverse event (AE). AEs such as rapid breathing, mild tachycardia and post treatment lethargy are generally considered to be the result of the powerful local inflammatory response and systemic activation of the dog's immune response during the treatment response phase. In this study, 44 AEs were identified in 15 event types. The majority of identified AEs (28 out of 44; […]) were represented by the ‘mild’ VCOG-CTCAE classification Grade 1 with no intervention required. With the exception of dog C03-T-07, a level of minimal medical intervention was required in only 3 cases. […] With the exception of dog C03-T-07, all reported AEs were transient in nature—resolved by 24-48 h post treatment in the majority of cases.

The nature of series [2]: Example 2: serum biochemistry and haematology. It counts as in vivo, dogs. An excerpt:
Individual blood samples were collected from the dogs into gel separated plain vacuettes at intervals outlined in Table 12. Plain blood samples were submitted on ice bricks by express courier to the local IDEXX laboratory which performed detailed biochemical analysis. Analysis included creatinine, protein, albumin, globulin, alkaline phosphatase, AST, gamma GT, creatine kinase, cholesterol, magnesium, calcium, phosphate, sodium, potassium, chloride, ALT, glucose, urea, amylase, bilirubin and triglycerides.
Individual blood samples were collected from the dogs into anti-coagulated (EDTA and sodium citrate) vacutainers at intervals outlined in Table 12. Blood samples were then be submitted on ice bricks by express courier to the local IDEXX laboratory, which performed detailed haematological analysis. Analysis included red blood cell count, white cell count, packed cell volume, mean corpuscular volume, mean corpuscular haemoglobin, mean corpuscular haemoglobin concentration, white cell differential count, platelets, haemoglobin, reticulocytes, PT and APTT.

Series [3] concerns cutaneous Mast Cell Tumor (MCT). The series can be described thus: Example 2: dose de-escalation study (1.0, 0.5, 0.2 mg/mL; 0.5 mL per cm^3 tumor), RECIST v.1.1 tumor response. In kind it is in vivo, dogs. The following applies: for RECIST classification: Day 21, one value per dog. The method, then: A multi-site, unmasked, uncontrolled, non-randomized dosage characterization study in dogs was performed under field conditions using dose de-escalation.
Dogs were enrolled in the study as they presented to participating veterinary practices meeting the necessary eligibility criteria. As the study design was a dose de-escalation study, dogs were allocated to the highest dose initially (1.0 mg Compound 1 per mL). Each dose comprised a total cohort of 10 dogs participating across all clinics. Once the cohort of 10 dogs was treated at the highest dose, subsequent dogs were assigned to the 2nd cohort (0.5 mg Compound 1 per mL) and dosing continued through de-escalation until completion of 7 evaluable enrolments in the 3rd cohort (0.2 mg Compound 1 per mL).
Each Compound 1 preparation (1.0, 0.5, and 0.2 mg/mL) was pre-prepared in a 30% propylene glycol, 30 mM Acetate buffer pH 4.0 solution.
Compound 1 was administered to each dog at 0.5 mL per cm^3 of tumor volume as determined on the day of dosing. Digital calipers were used to measure tumor axes.
Wherever possible, the tumor and a 2 cm border surrounding the tumor was shaved prior to treatment. To deliver the drug formulation, the needle of the dosing syringe was inserted into the tumor at the injection point and moved in a radial manner in 2- and 3-dimensions with approximately 0.1 mL of formulation delivered to each 0.2 cm^3 of tumor mass. Study dogs were clinically examined at approximately 24 and 48 hours, 7, 14 and 21 days post-treatment.
Prophylactic and supportive medications considered for use in this study to prevent paraneoplastic MCT-induced adverse events such as Darier's sign and gastric upset included cetrizine, chlorpheniramine, omeprazole, acetylpromazine, methadone and meloxicam. Some supportive therapies were given up to 5 days post treatment (see Table 14). Additional approved supportive therapies (if required) included fentanyl (patch) or tramadol analgesia, or antibiotic (amoxicillin/clavulanic acid).
Determination of efficacy was based on objective tumor measurements made according to the RECIST v.1.1 guidelines (Eisenhauer et al., 2009) using unidirectional tumor measurements.
Pairwise comparison of categorical responses to treatment between treatment groups at each time point post-treatment were compared using Fisher's Exact Test. Using the RECIST classification (Eisenhauer et al., 2009), tumor data was analysed to determine the effectiveness of, and differences between, treatments. Generalised linear modeling was used to examine the combined effects of treatment dose, time post-treatment and other potentially explanatory variables. Generalised estimating equations with appropriate error structure (and controlled for repeated measurements of individuals) were used to examine categorical response to treatment and changes in tumor volume measurement. Tumor volume analysis was also controlled for pre-treatment tumor volume.
MCT measurements were recorded using digital calipers. Measurements were taken pre-treatment and at 7(±1), 14(±1) and 21(±2) days post treatment. The length (cm) was designated the longest measurable axis; the width (cm) was the tumor at the widest point perpendicular to the length; gentle manipulation of the MCT to measure the depth (cm) using the calipers was considered acceptable. Determination of efficacy was based on objective tumor measurements made according to the RECIST v.1.1 guideline using the longest unidirectional measurement (Eisenhauer et al. 2009) recorded at each timepoint. RECIST criteria were only applied to target lesions as Compound 1 is not intended as a systemic therapy. […] RECIST v.1.1 results are summarized below in Table 18.

The text below walks through data of patent publication US20190160035A1, “METHOD OF TREATMENT” (QBIOTICS LIMITED, priority 2016, published 2019).

Entries after “also recorded” stand apart in the source; their conditions may differ. Bounds are passed on as bounds.

Take `C/C=C(\C)C(=O)O[C@@H]1[C@@H](C)[C@@]2(O)[C@H]([C@@H]3C(C)(C)[C@]13OC(=O)[C@@H](C)CC)[C@@H]1O[C@]1(CO)[C@@H](O)[C@]1(O)C(=O)C(C)=C[C@H]12` [Compound 1, 12-tigloyl-13-(2-methylbutanoyl)-6,7-epoxy-4,5,9,12,13,20-hexahydroxy-1-tigliaen-3-one]: the “Number of AEs identified” value in series [1] (12 dogs, 15 event types) is 44. Also, the “Share of AEs of VCOG-CTCAE Grade 1” value in series [1] (28 out of 44) is recorded as 61.3%. Moreover, the “Dogs that died during the course of the study” value in series [1] (dog C03-T-07, Day 4, veterinarian did not believe Compound 1 directly contributed) is 1. The “Time by which reported AEs resolved post treatment” value in series [1] (majority of cases, except dog C03-T-07) lay in the range of 24 to 48 h. The “Number of AEs of ‘mild’ VCOG-CTCAE Grade 1 (no intervention required)” value in series [1] (out of 44 AEs) came out at 28. In addition, the “Cases requiring minimal medical intervention” value in series [1] (with the exception of dog C03-T-07) is recorded as 3. In series [2] (all cohorts), the “Anaemia during the course of the study” value was “No dog exhibited anaemia”, the “Bleeding disorder during the course of the study” value was “No dog exhibited a bleeding disorder” and the Haematology observations result is “fairly unremarkable”. For the same molecule, the “Number of dogs with slightly elevated reticulocyte counts post treatment” value in series [2] (all cohorts (27 dogs)) was 7. Besides, the Serum biochemistry observations entry in series [2] (all cohorts, exceptions dogs GCV-204 (AST, CK) and NVC-307 (transient AST, ALT)) is on record as “fairly unremarkable”. Besides, in series [2] (platelets described as ‘clumping’), the “Number of dogs with slightly lower platelet counts post treatment” value is listed as 5. The “Number of dogs with complete response (CR)” value (“Number of dogs … (CR)” for short) in series [3] (cohort 1, 1.0 mg/mL, 10 dogs) was 9. Further, the RECIST classification entry in series [3] (cohort 2, 0.5 mg Compound 1/mL) is recorded as “PR (partial response (PR, at least 30% decrease in the longest diameter of target lesion)); also recorded: PD (progressive disease (PD, greater than 20% increase in the target lesion))”. Further, in series [3] (cohort 2, 0.5 mg/mL, 10 dogs), the “Number of dogs … (CR)” value was 5, the “Number of dogs with partial response (PR)” value came to 1 and the “Number of dogs with progressive disease (PD)” value was 1. The RECIST classification entry in series [3] (cohort 3, 0.2 mg Compound 1/mL) is “PR (partial response (PR, at least 30% decrease in the longest diameter of target lesion))”. Further, the “Number of dogs showing efficacy (greater than a 70% reduction in tumor volume at 21 days)” value in series [3] (cohort 3, 0.2 mg/mL) is below 3. Moreover, in series [3] (cohort 3, 0.2 mg/mL, 7 dogs), the “Number of dogs … (CR)” value is reported as 2 and the “Number of dogs with partial response (PR)” value worked out at 1. For the same molecule, in series [3] (dog GCV-107, cohort 1), the “Mitotic nuclei in post-surgical biopsy material of residual tumor” value is “no mitotic nuclei identified”. For the same molecule, the “Total tumor volume reduction (modified ellipsoidal calculation)” value in series [3] (dog GCV-107, cohort 1, Day 21) is 36%. Also, the “Unidirectional tumor measurement (length) decrease” value in series [3] (dog GCV-107, cohort 1, by Day 21) worked out at 23%.
